The first assay concerns the target T1, PIP4K2C (Homo sapiens, UniProt Q8TBX8).
T1 sequence (Q8TBX8 1-421): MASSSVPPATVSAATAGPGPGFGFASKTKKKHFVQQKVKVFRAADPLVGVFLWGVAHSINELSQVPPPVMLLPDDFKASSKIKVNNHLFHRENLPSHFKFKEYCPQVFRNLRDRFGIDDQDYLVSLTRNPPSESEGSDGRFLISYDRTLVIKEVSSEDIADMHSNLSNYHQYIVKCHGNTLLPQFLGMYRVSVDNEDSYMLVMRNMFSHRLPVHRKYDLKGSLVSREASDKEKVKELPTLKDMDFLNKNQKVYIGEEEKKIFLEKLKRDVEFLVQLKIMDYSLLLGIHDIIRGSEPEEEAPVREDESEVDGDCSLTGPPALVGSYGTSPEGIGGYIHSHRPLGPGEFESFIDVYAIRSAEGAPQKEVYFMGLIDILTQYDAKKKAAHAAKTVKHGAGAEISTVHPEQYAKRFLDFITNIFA
The assay is described as follows: HiBiT PIP4K2C degradation assay in MOLT-4 cells (endogenous PIP4K2C C-terminally tagged with HiBiT). It counts as cell-based. Details: untagged in primary human PBMCs and monocyte-derived dendritic cells. The settings on record: 6 hours of incubation time, rather than 24 hours; MOLT-4, top concentration 10 micromolar; read-out: HiBIT-degradation MOLT4 PIP4k2C DC50 (6 hours, marked *). The text has this: Example B-2: HiBiT PIP4K2C degradation assay
Materials: MOLT-4, a human T lymphoblast cell line (see https://www.atcc.org/products/crl-1582, herein incorporated by reference in its entirety), was genetically engineered using CRISPR-Cas9 by Synthego Corporation (Redwood City, CA) to C-terminally tag endogenous PIP4K2C with HiBiT peptide. Following clonal selection, genotype was confirmed by Sanger sequencing. MO LT-4 were maintained using RPMI-1640 medium from Gibco (Grand Island, NY, catalog number 11875-085) supplemented with 10% fetal bovine serum (FBS) from VWR (Philadelphia, PA, catalog number 97068-085). For HiBiT assays the cells were resuspended in RPMI-1640 medium without phenol read from Gibco (Grand Island, NY, catalog number 11835-030) supplemented with 10% FBS. Nano-Glo® HiBiT Lytic Assay System was purchased from Promega (Madison, WI, Catalog number N3030). Cell culture flasks and 384-well microplates were purchased from Corning (Glendale, AZ).
To study PIP4K2C degradation, 384-well plates were plated with a 10-point dose response curve, 3-fold dilution, in duplicate with a top starting concentration of 10 micromolar. Subsequently 22,500 cells were added to each well and incubated at 37 C in 5% C02 for 24 hours or 6 hours. At the end of the incubation time, cells were treated with the Nano-Glo® HiBiT Lytic Detection System following the manufacturer's instructions. Luminescence was measured with a PHERAstar FSX plate reader (BMG Labtech, Cary, NC). The Levenberg-Marquardt algorithm was used to fit a Hill equation to dose-response data to calculate DC50 values (see Table 6).
For the compound `Cn1nc(C2CCC(=O)NC2=O)c2ccc(N3CCN(C[C@H]4CC[C@H](C(=O)N[C@H]5CC[C@H](Nc6ncc(F)c(-c7cccc(-n8ccccc8=O)c7)n6)CC5)CC4)CC3)cc21` (stereo partly drawn) [Compound 489, trans-(1r,4R)-4-((4-(3-(2,6-dioxopiperidin-3-yl)-1-methyl-1H-indazol-6-yl)piperazin-1-yl)methyl)-N-((1r,4R)-4-((5-fluoro-4-(3-(2-oxopyridin-1(2H)-yl)phenyl)pyrimidin-2-yl)amino)cyclohexyl)cyclohexane-1-carboxamide], the DC50 was less than 500 nM. On the same count and under the same terms, then `O=C1CCC(Nc2ccc(N3CCC(N4CCC(NC(=O)[C@H]5CC[C@H](Nc6ncc(F)c(-c7cccc(N8CCCOC8=O)c7)n6)CC5)CC4)CC3)c(F)c2)C(=O)N1` (stereo partly drawn) [Compound 522, trans-N-(1′-(4-((2,6-dioxopiperidin-3-yl)amino)-2-fluorophenyl)-[1,4′-bipiperidin]-4-yl)-4-((5-fluoro-4-(3-(2-oxo-1,3-oxazinan-3-yl)phenyl)pyrimidin-2-yl)amino)cyclohexane-1-carboxamide], with less than 500 nM; and `O=C1CCC(Nc2ccc(N3CCN(CC4(O)CCN(C(=O)[C@H]5CC[C@H](Nc6ncc(F)c(-c7cccc(C(=O)N8CC[C@H](O)C8)c7)n6)CC5)CC4)CC3)c(F)c2)C(=O)N1` (stereo partly drawn) [Compound 482, trans-3-((3-fluoro-4-(4-((1-(4-((5-fluoro-4-(3-((S)-3-hydroxypyrrolidine-1-carbonyl)phenyl)pyrimidin-2-yl)amino)cyclohexane-1-carbonyl)-4-hydroxypiperidin-4-yl)methyl)piperazin-1-yl)phenyl)amino)piperidine-2,6-dione], with less than 500 nM.

Turning to `O=C1CCC(Nc2ccc(N3CCC(N4CCC(NC(=O)[C@H]5CC[C@H](Nc6ncc(F)c(-c7cccc(-c8ccc[nH]c8=O)c7)n6)CC5)CC4)C(F)C3)c(F)c2)C(=O)N1` (stereo partly drawn) [Compound 453, trans-N-(1′-(4-((2,6-dioxopiperidin-3-yl)amino)-2-fluorophenyl)-3′-fluoro-[1,4′-bipiperidin]-4-yl)-4-((5-fluoro-4-(3-(2-oxo-1,2-dihydropyridin-3-yl)phenyl)pyrimidin-2-yl)amino)cyclohexane-1-carboxamide], the DC50 was less than 500 nM.

With “trans-(1r,4R)-4-(4-(4-((2,6-dioxopiperidin-3-yl)amino)-2-fluorophenyl)piperidin-1-yl)-N-((1r,4R)-4-((5-fluoro-4-(6-(2-oxo-1,3-oxazinan-3-yl)pyridin-2-yl)pyrimidin-2-yl)amino)cyclohexyl)cyclohexane-1-carboxamide [Compound 539]”, the DC50 was greater than 5000 nM. As to `O=C1CCC(Nc2ccc(N3CCN([C@H]4CC[C@H](C(=O)N[C@H]5CC[C@H](Nc6ncc(F)c(-c7cccc(N8CCCOC8=O)c7)n6)CC5)CC4)CC3)c(F)c2)C(=O)N1` (stereo partly drawn) [Compound 424, trans-(1r,4R)-4-(4-(4-((2,6-dioxopiperidin-3-yl)amino)-2-fluorophenyl)piperazin-1-yl)-N-((1r,4R)-4-((5-fluoro-4-(3-(2-oxo-1,3-oxazinan-3-yl)phenyl)pyrimidin-2-yl)amino)cyclohexyl)cyclohexane-1-carboxamide], the DC50 is less than 500 nM. For `Cn1nc(C2CCC(=O)NC2=O)c2ccc(C3CCN(CC4(O)CCN(C(=O)O[C@H]5CC[C@H](Nc6ncc(F)c(-c7cccc(-c8ccccc8)c7)n6)CC5)CC4)CC3)cc21` (stereo partly drawn) [Compound 646, trans-4-((4-([1,1′-biphenyl]-3-yl)-5-fluoropyrimidin-2-yl)amino)cyclohexyl 4-((4-(3-(2,6-dioxopiperidin-3-yl)-1-methyl-1H-indazol-6-yl)piperidin-1-yl)methyl)-4-hydroxypiperidine-1-carboxylate], the DC50 is less than 500 nM. On the same count and under the same terms, as for `O=C1CCC(Nc2ccc(N3CCC(N4CCC(C(=O)N[C@H]5CC[C@H](Nc6ncc(F)c(-c7cccc(N8CCCCC8)c7)n6)CC5)CC4)C(F)C3)c(F)c2)C(=O)N1` (stereo partly drawn) [Compound 523, 1′-(4-((2,6-dioxopiperidin-3-yl)amino)-2-fluorophenyl)-3′-fluoro-N-((1r,4r)-4-((5-fluoro-4-(3-(piperidin-1-yl)phenyl)pyrimidin-2-yl)amino)cyclohexyl)-[1,4′-bipiperidine]-4-carboxamide], the figure is less than 500 nM.

The same assay, now with this note: 24 hours incubation, MOLT-4, top concentration 10 micromolar; read-out: HiBIT-degradation MOLT4 PIP4k2C 24 hours DC50.
`O=C1CCC(Nc2ccc(C3CCN(CC(=O)N4CCN(C(=O)[C@H]5CCC[C@@H](Nc6ncc(Cl)c(-c7cccc(-c8ccccc8)c7)n6)C5)CC4)CC3)cc2)C(=O)N1` (relative stereo) [Compound 57, cis-3-((4-(1-(2-(4-(3-((4-([1,1′-biphenyl]-3-yl)-5-chloropyrimidin-2-yl)amino)cyclohexane-1-carbonyl)piperazin-1-yl)-2-oxoethyl)piperidin-4-yl)phenyl)amino)piperidine-2,6-dione]: the DC50 was less than 500 nM. On the same count and under the same terms, as for `O=C1CCC(Nc2ccc(C3CCN(C4CCN(CCC(=O)N5CCC(Nc6ncc(Cl)c(-c7cccc(-c8ccccc8)c7)n6)CC5)CC4)CC3)cc2)C(=O)N1` (stereo not drawn) [Compound 48, 3-((4-(1′-(3-(4-((4-([1,1′-biphenyl]-3-yl)-5-chloropyrimidin-2-yl)amino)piperidin-1-yl)-3-oxopropyl)-[1,4′-bipiperidin]-4-yl)phenyl)amino)piperidine-2,6-dione], the figure is less than 500 nM; as for `Cn1nc(C2CCC(=O)NC2=O)c2ccc(C3CCN(C(=O)C4(O)CCN(CC(=O)N5CCC(Nc6ncc(Cl)c(-c7cccc(-c8ccc(F)cc8)c7)n6)CC5)CC4)CC3)cc21` (stereo not drawn) [Compound 278, 3-(6-(1-(1-(2-(4-((5-chloro-4-(4′-fluoro-[1,1′-biphenyl]-3-yl)pyrimidin-2-yl)amino)piperidin-1-yl)-2-oxoethyl)-4-hydroxypiperidine-4-carbonyl)piperidin-4-yl)-1-methyl-1H-indazol-3-yl)piperidine-2,6-dione], less than 500 nM; as for `O=C1CCC(n2c(=O)oc3cc(C4CCN(C5CCN(CCC(=O)N6CCC(Nc7ncc(F)c(-c8cccc(-n9ccccc9=O)c8)n7)CC6)CC5)CC4)ccc32)C(=O)N1` (stereo not drawn) [Compound 353, 3-(6-(1′-(3-(4-((5-fluoro-4-(3-(2-oxopyridin-1(2H)-yl)phenyl)pyrimidin-2-yl)amino)piperidin-1-yl)-3-oxopropyl)-[1,4′-bipiperidin]-4-yl)-2-oxobenzo[d]oxazol-3 (2H)-yl)piperidine-2,6-dione], less than 500 nM. The same measure, in the same setting: then `O=C1CCC(n2c(=O)oc3cc(C4CCN(CC(=O)N5CCC(O)(C(=O)N6CCC(Nc7ncc(F)c(-c8cccc(-n9ccccc9=O)c8)n7)CC6)CC5)CC4)ccc32)C(=O)N1` (stereo not drawn) [Compound 331, 3-(6-(1-(2-(4-(4-((5-fluoro-4-(3-(2-oxopyridin-1(2H)-yl)phenyl)pyrimidin-2-yl)amino)piperidine-1-carbonyl)-4-hydroxypiperidin-1-yl)-2-oxoethyl)piperidin-4-yl)-2-oxobenzo[d]oxazol-3 (2H)-yl)piperidine-2,6-dione], with less than 500 nM. On the same count and under the same terms, as for `O=C1CCC(Nc2ccc(N3CCC(CCN4CCC(C(=O)N[C@H]5CC[C@H](Nc6ncc(F)c(-c7cccc(-n8ccccc8=O)c7)n6)CC5)CC4)CC3)c(F)c2)C(=O)N1` (stereo partly drawn) [Compound 316, trans-1-[2-[1-[4-[(2,6-dioxo-3-piperidyl)amino]-2-fluoro-phenyl]-4-piperidyl]ethyl]-N-[4-[[5-fluoro-4-[3-(2-oxo-1-pyridyl)phenyl]pyrimidin-2-yl]amino]cyclohexyl]piperidine-4-carboxamide], the figure is less than 500 nM.

The assay is the same for the next values; noted with them: read-out: HiBIT-degradation MOLT4 PIP4k2C DC50 (6 hours, marked *); 6 hours of incubation time, rather than 24 hours; MOLT-4, top concentration 10 micromolar.
Consider `O=C1CCC(Nc2ccc(N3CCN(C[C@H]4CC[C@H](C(=O)N5CCC(Nc6ncc(F)c(-c7cccc(N8CCOCC8)c7)n6)CC5)CC4)CC3)c(F)c2)C(=O)N1` (stereo partly drawn) [Compound 670, 3-((3-fluoro-4-(4-((trans-4-(4-((5-fluoro-4-(3-morpholinophenyl)pyrimidin-2-yl)amino)piperidine-1-carbonyl)cyclohexyl)methyl)piperazin-1-yl)phenyl)amino) piperidine-2,6-dione], for which the DC50 is greater than 5000 nM.

The record behind these values is patent publication US20260355196A1, “INHIBITORS AND DEGRADERS OF PIP4K PROTEIN” (Larkspur Biosciences, Inc., priority 2023, published 2026).
